Earlier results, collected in patent US12091679B2, “Storage method and banking system of NT cell” (SUNGKWANG MEDICAL FOUNDATION, priority 2015, dated 2024).

Test system: various animal cancer models

Compound	anticancer activity
CC(C)N(C[C@H]1O[C@@H](n2cnc3c(N)ncnc32)[C@H](O)[C@@H]1O)[C@H]1C[C@@H](CCc2nc3cc(C(C)(C)C)ccc3[nH]2)C1 [EPZ5676]	show anticancer activity
Cc1cc(C)c(CNC(=O)c2cc(-c3ccc(CN4CCOCC4)cc3)cc3c2cnn3C2CCCC2)c(=O)[nH]1 [EPZ005687]	show anticancer activity
CC[C@H](C)n1cc(C)c2c(C(=O)NCc3c(C)cc(C)[nH]c3=O)cc(-c3ccc(N4CCNCC4)nc3)cc21 [GSK126]	show anticancer activity
